“Also recorded” adds a separate entry of the source. Where a SMILES comes first, the peptide text is derived from it. [ ]: non-standard residue; d: D form. The star is where a group is joined. Cbz = O=C(OCc1ccccc1)*
Tests used:
Assay type in all cases: biochemical
Cathepsin Y [1] = target: T1, Cathepsin Y (Homo sapiens, UniProt Q9UBR2); assay: Inhibition of Cathepsin Y carboxypeptidase activity (o-phthalaldehyde fluorescence, acetylated EGYYGNYGV substrate); details: pH 4.5
T1 construct: source of the purified preparation not in excerpts; cDNA from human HS683 cells, expressed in 293 cells
T1 sequence (Q9UBR2 62-303): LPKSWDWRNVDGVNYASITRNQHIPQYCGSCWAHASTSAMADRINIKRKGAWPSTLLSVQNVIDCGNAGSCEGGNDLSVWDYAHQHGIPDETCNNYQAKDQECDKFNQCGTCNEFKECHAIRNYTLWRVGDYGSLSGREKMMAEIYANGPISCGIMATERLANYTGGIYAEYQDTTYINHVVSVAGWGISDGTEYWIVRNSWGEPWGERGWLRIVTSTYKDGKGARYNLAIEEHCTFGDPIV
Description: (§1) This is accomplished by reacting with the reagent o-phthalaldehyde in an alkaline solution in the presence of 2-mercaptoethanol (Simons, et al., JACS, 98:7098-7099, (1976)).
(§2) A standard curve was constructed by incubating varying concentrations of valine (0-20 μM) in 0.25M sodium borate, pH 10, containing 0.05% 2-mercaptoethanol and 60 μg/mL o-phthalaldehyde, in individual wells of a 96 well microtiter plate. The resulting fluorescence is read in a plate reading Cytofluor (ex 340, em 460 nm). There is a linear increase in the signal proportional to the amount of free valine present (FIG. 7).
(§3) In order to determine the pH optimum of the enzyme, reaction mixtures were set up with enzyme and substrate (0.2 mg/mL) in a total reaction volume of 0.1 mL) in individual wells of 96-well microtiter plates, in 20 mM sodium acetate buffers at different pHs, with 0.1% 2-mercaptoethanol present. Control wells were set identically except for the […] of enzyme. At various time-points after incubation at room temperature, the reactions were quenched by the addition of an equal volume of 0.45M sodium borate, pH 10, with 0.25 mg/mL o-phthalaldehyde, and the fluorescence measured. In the absence of added enzyme, no measurable fluorescence is generated above background, even with extended incubations. In the presence of enzyme, there is a time-dependent increase in fluorescence.
Using this assay at pH 4.5, the ability of a number of compounds to inhibit the activity of Cathepsin Y was tested, by adding the desired concentration of the inhibitor in the incubation mixture along with enzyme and substrate, and measuring the decrease in fluorescence (if any) relative to enzyme control.

[2] = Activity of Cathepsin Y on synthetic substrates used for assaying Cathepsin B, L or S
Cathepsin Y [3] = target: T1, Cathepsin Y; assay: Cleavage of synthetic oligopeptides by purified Cathepsin Y (RP-HPLC, amino-acid analysis); details: for cleavage product(s) of parent oligopeptide with Cathepsin Y: 50 μg/mL peptide, pH 4.5 or 5.5, 1 hour, 37° C
Description: In an effort to identify whether the enzyme has other proteolytic activity, a number of randomly selected synthetic oligopeptides were incubated with purified Cathepsin Y at pH 5.5 or 4.5. Specifically, purified Cathepsin Y was incubated with the selected synthetic oligopeptides (50 μg/mL) at either pH 4.5 or pH 5.5, for 1 hour at 37° C. Samples were quenched by the addition of trifluoroacetic acid to 1% final concentration, then analyzed by reverse phase HPLC on a Vydac C18 column, using a gradient of increasing acetonitrile in 0.1% trifluoroacetic acid. Individual peaks (parent and new product(s)) were collected, then analyzed by acid hydrolysis followed by amino-acid analysis.

APP = assay: Proteolytic activity of purified Cathepsin Y on APP preparations; details: purified recombinant APP constructs and membrane-bound full-length APP
[4] = pH optimum of Cathepsin Y carboxypeptidase activity; details: 20 mM sodium acetate buffers, room temperature
Description: as §1, §2, §3

[5] = synthetic oligopeptides, pH 4.5 or 5.5

cleavage product(s) of parent oligopeptide with Cathepsin Y (Cathepsin Y [3])	Compound	inhibition of Cathepsin Y activity (Cathepsin Y [1])	other results
	O=C[C@H](Cc1ccccc1)NC(=O)C(c1ccccc1)c1ccccc1 [Example 3]	indicated inhibition of Cathepsin Y activity	
	O=C[C@H](Cc1ccccc1)NC(=O)CCCCc1ccccc1 [Example 4]	indicated inhibition of Cathepsin Y activity	
	O=C[C@H](Cc1ccccc1)NC(=O)C(=Cc1ccccc1)c1ccccc1 [Example 7]	indicated inhibition of Cathepsin Y activity	
	CC(C)[C@H](NC(=O)OCc1ccccc1)C(=O)N[C@H](C=O)Cc1ccccc1 [Example 15] (Cbz-Val-Phe-aldehyde)	indicated inhibition of Cathepsin Y activity	
	CC(C)[C@@H](NC(=O)OCc1ccccc1)C(=O)N[C@H](C=O)Cc1ccccc1 [Example 24] (Cbz-[dV]-Phe-aldehyde)	indicated inhibition of Cathepsin Y activity	
	O=C[C@H](Cc1ccc(OCc2ccccc2)cc1)NC(=O)C(c1ccccc1)c1ccccc1 [Example 45]	indicated inhibition of Cathepsin Y activity	
	CSCC[C@@H](C=O)NC(=O)[C@@H](NC(=O)OCc1ccccc1)C(C)C [Example 47] (Cbz-Val-Met-aldehyde)	indicated inhibition of Cathepsin Y activity	
	O=C[C@H](Cc1ccccc1)NC(=O)Cc1ccccc1 [Example 59]	indicated inhibition of Cathepsin Y activity	
	O=C[C@H](Cc1ccccc1)NC(=O)C1c2ccccc2Oc2ccccc21 [Example 64]	indicated inhibition of Cathepsin Y activity	
	O=C[C@H](Cc1ccccc1)NC(=O)N(c1ccccc1)c1ccccc1 [Example 75]	indicated inhibition of Cathepsin Y activity	
	Cathepsin Y: novel carboxypeptidase having a molecular weight of approximately 31 kD and the amino acid sequence set forth in SEQ ID No. 3		activity with known synthetic substrates for Cathepsin B, L or S [2]: No significant activity; endopeptidase or aminopeptidase activity (Cathepsin Y [3]; [5]): No evidence of any endopeptidase or aminopeptidase activity; predominant proteolytic activity (Cathepsin Y [3]; [5]): carboxypeptidase activity; effect on various APP preparations (APP): without effect; pH optimum for carboxypeptidase activity [4]: about 4.5
EGYYGNYGV	EGYYGNYGV		
EGYYGNYGVY; also recorded: EGYYGNYGV	EGYYGNYGVYA		
FFDEPNPGVT	FFDEPNPGVTIY		
YKRDMVGGVVI; also recorded: YKRDMVGGVV	YKRDMVGGVVIA		

Compound	cleavage product(s) of parent oligopeptide with Cathepsin Y (Cathepsin Y [3])	inhibition of Cathepsin Y activity (Cathepsin Y [1])	other results
LFYDQSPTATI	LFYDQSPTAT; also recorded: LFYDQSPTA; also recorded: LFYDQSPT		

Source: patent US5783434A, “Cathepsin and methods and compositions for inhibition thereof” (priority 1995, dated 1998)
